Consider 23 compounds from paper PMC5706701, “Development of a homogenous high-throughput assay for inositol hexakisphosphate kinase 1 activity” (PLoS ONE, 2017).

Several values for one entry are separate records, joined by “and”; a condition that tells them apart may be missing. Equal values may be shown once. Where a name gives a salt, the structure may show the parent alone.

For the assay, the target named is T1, Human IP6K1 (Homo sapiens, UniProt Q92551).
T1 construct: GST (N, cleaved yes); made in house; host or cells: C43 E. coli, pGEX-6P-2
T1 sequence (Q92551 whole entry): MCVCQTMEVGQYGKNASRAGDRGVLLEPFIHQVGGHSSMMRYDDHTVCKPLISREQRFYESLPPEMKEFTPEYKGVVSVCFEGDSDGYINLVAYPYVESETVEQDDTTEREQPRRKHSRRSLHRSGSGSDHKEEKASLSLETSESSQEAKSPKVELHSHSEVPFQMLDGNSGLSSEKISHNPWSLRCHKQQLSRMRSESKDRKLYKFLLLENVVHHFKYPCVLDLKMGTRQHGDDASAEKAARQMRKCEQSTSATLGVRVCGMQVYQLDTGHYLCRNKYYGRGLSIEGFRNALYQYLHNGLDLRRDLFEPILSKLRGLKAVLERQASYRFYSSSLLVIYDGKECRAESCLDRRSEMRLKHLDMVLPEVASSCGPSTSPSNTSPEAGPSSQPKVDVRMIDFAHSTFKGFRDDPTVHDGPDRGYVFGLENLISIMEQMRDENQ
Kind of assay: IP6K1 high-throughput screen of the Sigma LOPAC (ADP-Glo Max, single point).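 Also: final compound concentration 10µM in 5% DMSO.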 It is filed as biochemical. A general note: ADP-Glo turns the ADP formed in a reaction into a luminescent signal.

Setting [1] is: LOPAC single-point screen, ADP-Glo Max raw signal per well.
The mark [2] stands for this setting: LOPAC single-point screen, Z-score from raw signal with plate average and StDev.
[3] abbreviates: LOPAC single-point screen, ADP-Glo Max luminescence raw signal per well.
Where [4] appears, read: LOPAC single-point screen, Z-score relative to plate average and StDev.
The mark [5] stands for this setting: Sigma LOPAC single-point screen, ADP-Glo Max raw signal per well.
Setting [6] is: Sigma LOPAC single-point screen, Z-score from plate average and StDev.
[7] abbreviates: LOPAC single-point screen, Z-score from plate average and StDev.
Setting [8] is: LOPAC single-point screen, Z-score against plate average and StDev.

In the case of `COc1ccc2c(c1OC)C(=O)O[C@@H]2[C@H]1c2c(cc3c(c2OC)OCO3)CCN1C.Cl` [Noscapine hydrchloride], the “Raw Signal” value under setting [1] turned out to be 53510. Under setting [2], this compound displayed a Z-score of -0.1485. Regarding `CN(N=O)c1ccc(O)c(O)c1` [Me-3,4-dephostatin], under setting [3], the “Raw Signal” value is on record as 32245. For the same compound, the Z-score under setting [4] was -3.722. For 17alpha-hydroxyprogesterone, under setting [5], the “Raw Signal” value was found to be 57278. The same compound had a Z-score under setting [6] of 0.4287.

In the case of `CC(C)NCC(O)COc1cccc2[nH]ccc12` (stereo not drawn) [S(-)-Pindolol], the “Raw Signal” value under setting [3] is 52829 and 52276. For `NC(=O)c1ccc(OCC(O)CN2CC=C(c3ccc(F)cc3)CC2)cc1` (stereo not drawn) [Ro 8-4304], the “Raw Signal” value under setting [3] worked out at 63292. Also, the Z-score under setting [7] was 1.412.

For the compound `Cc1ccc(S(=O)(=O)N[C@@H](Cc2ccccc2)C(=O)CCl)cc1`, the “Raw Signal” value under setting [5] was 59222. Under setting [6], the Z-score is 0.6213. On the same counts, the results for `N[C@@H](Cn1oc(=O)[nH]c1=O)C(=O)O` [(+)-Quisqualic acid] are 59992 and 0.7709. With `CN(C)S(=O)(=O)c1ccc2c(c1)/C(=C/c1cc3c([nH]1)CCCC3)C(=O)N2` [SU 6656], the “Raw Signal” value under setting [1] is listed as 57564. Also, under setting [8], the Z-score turned out to be 0.2992. For the compound `C[N+]1(C)CCC(OC(=O)C(c2ccccc2)c2ccccc2)CC1.[I-]` [4-DAMP methiodide], the “Raw Signal” value under setting [3] was determined as 63096. The compound further gave a Z-score under setting [7] of 1.6103. `C[N+]1(C)[C@@H]2C[C@@H](OC(=O)[C@H](CO)c3ccccc3)C[C@H]1[C@@H]1O[C@@H]12` [(-)-Scopolamine methyl bromide]: under setting [1], the “Raw Signal” value is on record as 55432. The compound also gave a Z-score under setting [2] of -0.115.

In the case of `NCC(O)(CS(=O)(=O)O)c1ccc(Cl)cc1` (stereo not drawn) [2-Hydroxysaclofen], the “Raw Signal” value under setting [5] came out at 61124. The compound further displayed a Z-score under setting [6] of 0.5655. Consider `NC/C=C/C(=O)O` [(E)-4-amino-2-butenoic acid], for which the “Raw Signal” value under setting [3] amounted to 52183. Under setting [4], this compound showed a Z-score of -1.009.

Turning to `O=C1CCc2cc(OCCCCc3nnnn3C3CCCCC3)ccc2N1` [Cilostazol], under setting [1], the “Raw Signal” value came to 58165. Under setting [8], this compound displayed a Z-score of 0.04437. On the same counts, the results for `Cc1cc(C(C)(C)C)cc(C)c1CC1=NCCN1` [Xylometazoline hydrochloride] are 57404 and 0.2681. Consider `COc1ccc(CCNC[C@H](O)c2ccc(O)cc2)cc1OC` [R(-)-Denopamine], for which the “Raw Signal” value under setting [5] came out at 58220. For the same compound, the Z-score under setting [6] was 0.4267. Consider `Cl.NCC(O)c1ccc(O)cc1` (racemic) [(±)-Octopamine hydrochloride], for which the “Raw Signal” value under setting [1] is recorded as 52629. Under setting [2], the Z-score is on record as -0.2965. With `CN1CCc2cccc3c2[C@H]1Cc1ccc(O)c(O)c1-3` [Apomorphine hydrochloride hemihydrate], the “Raw Signal” value under setting [3] is 53248. Also, under setting [4], the Z-score is reported as -0.8217. `CN(N=O)c1cc(O)ccc1O` [Dephostatin]: under setting [1], the “Raw Signal” value is 55962. Under setting [8], this compound gave a Z-score of 0.1615.

With `N=C(N)N1CCc2ccccc2C1` [Debrisoquin sulfate], the “Raw Signal” value under setting [3] stood at 61933. Besides, the Z-score under setting [7] is 1.3741. Consider `COC[C@H]1OC(=O)c2coc3c2[C@@]1(C)C1=C(C3=O)[C@@H]2CCC(=O)[C@@]2(C)C[C@H]1OC(C)=O` [Wortmannin from Penicillium funiculosum], for which the “Raw Signal” value under setting [3] is 53582. The compound further gave a Z-score under setting [4] of -0.4744. `Cl.NC1CCN(c2cccc(Cl)n2)CC1` [SR 57227A]: the “Raw Signal” value under setting [3] amounted to 53376. The same compound yielded a Z-score under setting [4] of -0.5144. In the case of `CCNC(=O)[C@H]1O[C@@H](n2cnc3c(NCc4ccccc4)ncnc32)[C@H](O)[C@@H]1O` [N6-Benzyl-5 -N-ethylcarboxamidoadenosine], the “Raw Signal” value under setting [1] is 59001. Further, the Z-score under setting [8] came to 0.1916. Turning to `Nc1nnc(-c2cccc(Cl)c2Cl)c(N)n1` [Lamotrigine], under setting [1], the “Raw Signal” value worked out at 53800. This compound came in with a Z-score under setting [2] of -0.09973.
